The test system of data set [1] is GPBAR1 target gene Pro-glucagon in GLUTAg cells. As to the kind of experiment: Real-time PCR of GPBAR1 target gene Pro-glucagon in GLUTAg cells. It is filed as cell-based, mouse. The note with it: 10 μM, relative to not treated cells. The protocol:
(§1) Figure 10 (A) Coactivator recruitment assay measuring a direct interaction of FXR with SRC-1; ligands at 2 μM. Results are expressed as percentage of the effect of 3 arbitrarily settled as 100%. NT is referred to the experiment in absence of ligand. […] (B,C) Real-time PCR analysis of mRNA expression on FXR target genes BSEP (B), and OSTα (C) in HepG2 cells primed with 10 μM of compound 19. CDCA (1) was used as a positive control at 10 μM. (D) Real-time PCR analysis of mRNA expression of GPBAR1 target gene Pro-glucagon in GLUTAg cells stimulated with 10 μM of compounds 7 and 19, and TLCA (2) used as a positive control at 10 μM. Values are normalized to GAPDH and are expressed relative to those of not treated cells (NT) which are arbitrarily settled to 1. The relative mRNA expression is expressed as 2(−ΔΔCt).
(§2) Total RNA was isolated from HepG2 or GLUTAg cells using the TRIzol reagent according to the manufacturer’s specifications (Invitrogen). One microgram of purified RNA was treated with DNase-I and reverse transcribed with Superscript II (Invitrogen). For Real Time PCR, 10 ng template was dissolved in 25 μL containing 200 nmol/L of each primer and 12.5 μL of 2 × SYBR FAST Universal ready mix (Invitrogen). […] The relative mRNA expression was calculated and expressed as 2-(ΔΔCt). […]
Background: In qPCR the cycle at which signal appears reflects the starting amount.

Data set [2] concerns the target T1, GST-fusion FXR-LBD / SRC-1 peptide (Homo sapiens, UniProt Q96RI1).
T1 construct: 10 nM of purified GST-tagged FXR-LBD protein
T1 sequence (Q96RI1 262-486 limits assumed): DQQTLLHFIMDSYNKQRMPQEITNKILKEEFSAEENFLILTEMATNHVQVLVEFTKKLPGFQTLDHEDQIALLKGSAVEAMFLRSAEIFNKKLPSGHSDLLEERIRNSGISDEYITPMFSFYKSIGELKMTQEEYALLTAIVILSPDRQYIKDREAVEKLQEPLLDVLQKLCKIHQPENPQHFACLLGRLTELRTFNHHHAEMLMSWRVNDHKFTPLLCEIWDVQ
T1 sequence (Q15788 676-700 partner limits assumed): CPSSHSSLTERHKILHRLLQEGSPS
As to the kind of experiment: Alpha screen coactivator recruitment assay, direct interaction of FXR with SRC-1. It is filed as biochemical. Particulars: ligands at 2 μM, effect of 6-ECDCA (3) settled as 100%. The protocol: CDCA (1) and 6-ECDCA (3) were used as positive controls at 2 μM concentration and the effect of 6-ECDCA (3) was settled as 100%. […] Results are expressed as percentage of the effect of 3 arbitrarily settled as 100%. NT is referred to the experiment in absence of ligand. […] (B,C) Real-time PCR analysis of mRNA expression on FXR target genes BSEP (B), and OSTα (C) in HepG2 cells primed with 10 μM of compound 19. CDCA (1) was used as a positive control at 10 μM. (D) Real-time PCR analysis of mRNA expression of GPBAR1 target gene Pro-glucagon in GLUTAg cells stimulated with 10 μM of compounds 7 and 19, and TLCA (2) used as a positive control at 10 μM. Values are normalized to GAPDH and are expressed relative to those of not treated cells (NT) which are arbitrarily settled to 1. The relative mRNA expression is expressed as 2(-ΔΔCt). Anti-GST-coated acceptor beads were used to capture the GST-fusion FXR-LBD whereas the biotinylated-SRC-1 peptide was captured by the streptavidin donor beads. Upon illumination at 680 nm, chemical energy is transferred from donor to acceptor beads across the complex streptavidin-Donor/Src-1-Biotin/[…]-LBD/Anti-GST-Acceptor and a signal is produced. The assay was performed in white, low-volume, 384-well Optiplates (PerkinElmer) using a final volume of 25 μL containing final concentrations of 10 nM of purified GST-tagged FXR-LBD protein, 30 nM biotinylated Src-1 peptide, 20 μg/mL anti-GST acceptor beads acceptor beads and 10 μg/mL of streptavidin donor bead (PerkinElmer). The assay buffer contained 50 mM Tris (pH 7.4), 50 mM KCl, 0.1% BSA, and 1 mM DTT. The stimulation times with 1 μL of tested compound (dissolved in 50% DMSO/H2O) were fixed to 30 min at room temperature. The concentration of DMSO in each well was maintained at a final concentration of […]. After the addition of the detection mix (acceptor and donor beads) the plates were incubated in the dark for 4 h at room temperature and then were read in Envision microplate analyzer (PerkinElmer).

Another data set deals with T2, human GPBAR1 (Homo sapiens, UniProt Q8TDU6).
T2 construct: expressed in transfected cells; host or cells: HEK-293T
T2 sequence (Q8TDU6 1-330): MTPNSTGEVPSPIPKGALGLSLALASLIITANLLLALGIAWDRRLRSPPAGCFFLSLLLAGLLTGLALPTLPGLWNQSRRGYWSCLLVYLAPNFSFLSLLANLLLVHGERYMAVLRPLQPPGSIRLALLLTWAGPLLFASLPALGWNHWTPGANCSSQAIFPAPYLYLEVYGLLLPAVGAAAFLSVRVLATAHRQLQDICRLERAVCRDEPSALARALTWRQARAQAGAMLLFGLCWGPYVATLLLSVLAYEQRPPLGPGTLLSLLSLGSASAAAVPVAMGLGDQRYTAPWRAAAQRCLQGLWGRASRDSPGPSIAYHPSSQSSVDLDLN
As to the kind of experiment: GPBAR1 transactivation (cAMP responsive element luciferase reporter) in transfected HEK-293T cells. Particulars: for EC50: HEK-293T cells transfected with GPBAR1, concentration-response, mean ± standard error. The format is cell-based. The source says: Luciferase activities were normalized with Renilla activities.
Background: Reporter assays use an easily measured gene product as a stand-in for the process of interest.

Data set [3] concerns animal models of non-obstructive cholestasis. Further details: method as in PMID 26177448. Particulars: cited from earlier work.
For a further data set, the system named is PBC patients. Also noted: method as in PMID 25500425. Particulars: cited from earlier work.
Data set [4] relates to FXR target genes BSEP and OSTα in HepG2 cells. Nature of the data set: Real-time PCR of FXR target genes BSEP and OSTα in HepG2 cells. It is filed as cell-based, human. Particulars: 10 μM, relative to not treated cells. The method, then: as §1, §2
For data set [5], the target named is T3, FXR (Homo sapiens, UniProt Q96RI1).
T3 sequence (Q96RI1 1-486): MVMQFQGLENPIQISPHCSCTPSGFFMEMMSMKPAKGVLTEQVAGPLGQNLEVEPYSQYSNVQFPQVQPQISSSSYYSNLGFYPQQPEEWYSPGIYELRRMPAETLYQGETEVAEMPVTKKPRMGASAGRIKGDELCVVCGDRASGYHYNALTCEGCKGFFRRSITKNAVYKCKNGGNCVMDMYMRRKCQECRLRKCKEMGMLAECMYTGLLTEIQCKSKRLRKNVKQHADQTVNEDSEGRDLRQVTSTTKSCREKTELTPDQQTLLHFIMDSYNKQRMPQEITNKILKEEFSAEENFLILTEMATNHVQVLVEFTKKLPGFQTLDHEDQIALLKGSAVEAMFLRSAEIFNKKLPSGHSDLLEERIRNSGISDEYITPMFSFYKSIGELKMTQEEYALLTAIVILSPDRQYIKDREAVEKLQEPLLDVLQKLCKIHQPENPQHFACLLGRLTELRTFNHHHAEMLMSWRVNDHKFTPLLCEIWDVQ
T3 sequence (P19793 1-462 partner): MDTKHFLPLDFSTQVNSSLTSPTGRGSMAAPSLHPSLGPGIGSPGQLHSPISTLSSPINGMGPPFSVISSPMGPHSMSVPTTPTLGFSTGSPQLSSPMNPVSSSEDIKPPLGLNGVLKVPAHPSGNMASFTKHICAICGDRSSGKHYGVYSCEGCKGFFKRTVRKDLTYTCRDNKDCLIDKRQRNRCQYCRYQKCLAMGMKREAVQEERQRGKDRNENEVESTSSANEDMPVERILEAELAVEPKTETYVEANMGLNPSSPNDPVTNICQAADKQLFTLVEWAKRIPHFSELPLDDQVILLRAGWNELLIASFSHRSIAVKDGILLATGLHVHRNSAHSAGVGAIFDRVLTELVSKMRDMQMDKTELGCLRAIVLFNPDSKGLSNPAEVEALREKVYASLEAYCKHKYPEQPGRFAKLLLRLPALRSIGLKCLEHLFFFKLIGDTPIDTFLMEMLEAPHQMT
Nature of the data set: FXR transactivation luciferase reporter assay in transfected HepG2 cells. The note with it: HepG2 cells transfected with FXR; for EC50: EC50 FXR transactivation, 100 nM to 25 μM, mean ± standard error.
Procedure: (A) HepG2 cells were transfected with pSG5-FXR, pSG5-RXR, pCMV-βgal, and p(hsp27)TKLUC vectors. […] CDCA (1, 10 μM) and 6-ECDCA (3, 1 μM) were used as a positive control. […] Cells were stimulated with 7–19 (10 μM). […] In both panels, results are expressed as mean ± standard error. *p < 0.05 versus not treated cells (NT).
HepG2 cells were transfected with FXR as described above and used in a luciferase reporter assay. […] Results are expressed as mean ± standard error.
For FXR and GP BAR1 mediated transactivations, HepG2 cells and HEK293T cells were transfected as described previously[25]. […] After treatments, 20 μL of cellular lysates were read using Dual Luciferase Reporter Assay System (Promega Italia s.r.l., Milan, Italy) according manufacturer specifications using the Glomax 20/20 luminometer (Promega Italia s.r.l., Milan, Italy). […] At 18 h post stimulations, cellular lysates were assayed for luciferase and Renilla activities using the Dual-Luciferase Reporter assay system (E1980, Promega). Luminescence was measured using Glomax 20/20 luminometer (Promega). Luciferase activities were normalized with Renilla activities.

The test system of data set [6] is rodent models of portal hypertension. Further details: method as in PMID 26539823. The note with it: cited from earlier work.
The subject of a further data set is GPBAR1. Further details: method as in PMID 25247751. Particulars: cited from earlier work.
The target of data set [7] is T3, FXR. Also noted: method as in PMID 25247751. Particulars: any concentration tested; cited from earlier work.

Molecules are shown by their SMILES. Where “and” joins values, the source holds several entries; their conditions need not be identical. Equal values may be shown once.

As usually defined, the EC50 is the concentration giving half of the maximal effect. With `CCC1C(O)C2C3CCC(C(C)CCO)C3(C)CCC2C2(C)CCC(O)CC12` (stereo not drawn) [compound 7], in [1], the Pro-glucagon gene expression entry is reported as “increased pro-glucagon gene expression”. For the same molecule, in [2], the “Recruitment of SRC-1 co-activator to FXR” value is reported as “completely unable to recruit SRC-1”. At human GPBAR1 (HEK-293T cells transfected with GPBAR1, 10 μM), the “GPBAR1 potency compared with TLCA (2)” value is on record as “potency similar to that of TLCA”. In addition, the “GPBAR1 transactivation (cAMP-luciferase reporter gene)” value at human GPBAR1 (HEK-293T cells transfected with GPBAR1, compounds at 10 μM) is “inducers of cAMP-luciferase reporter gene”. The response at human GPBAR1 was half-maximal at 910 nM (EC50).
As for `CC[C@H]1[C@@H](O)[C@@H]2[C@H](CC[C@]3(C)[C@@H]([C@H](C)CCO)CC[C@@H]23)[C@@]2(C)CC[C@@H](O)C[C@@H]12` [compound 5], the “Liver damage and itching” value in data set [3] is on record as “attenuates liver damage in animal models of non-obstructive cholestasis without inducing itching”.
On to `CC[C@H]1[C@@H](O)[C@@H]2[C@H](CC[C@]3(C)[C@@H]([C@H](C)CCC(=O)O)CC[C@@H]23)[C@@]2(C)CC[C@@H](O)C[C@@H]12` [6-ECDCA/OCA, 6-ECDCA], for which the “Patients who experienced the symptoms (pruritus)” value with PBC patients is given as “approx. 80%”. Also, the “PBC patients who halted the treatment due to the severity of itching” value in the data set with PBC patients (one trial) is “up to 40%”.
For the molecule `C/C=C1/[C@H](O)C2C3CC[C@H]([C@H](C)CCO)[C@@]3(C)CCC2[C@@]2(C)CC[C@@H](O)C[C@@H]12` (stereo partly drawn) [compound 10], the “Recruitment of SRC-1 co-activator to FXR” value in data set [2] was “completely unable to recruit SRC-1”.
Turning to `CCC1C(O)C2C3CCC(C(C)CCCCCOS(=O)(=O)O)C3(C)CCC2C2(C)CCC(O)CC12` (stereo not drawn) [compound 19], in [4], the “BSEP mRNA upregulation” value came to 2 fold and the “OSTα mRNA expression” value was “robust induction of OSTα mRNA”. In data set [1], the Pro-glucagon gene expression result was “increased pro-glucagon gene expression”. The “Recruitment of SRC-1 co-activator to FXR” value in [2] was “at least comparable, if not better, to that measured for 3”. The EC50 on human GPBAR1 was 950 nM. Moreover, it took 1700 nM to reach a half-maximal effect at FXR [5] (EC50). In addition, the “FXR transactivation (luciferase reporter)” value on FXR [5] (compounds at 10 μM) is “the most potent FXR agonist generated in this study”.
As for `CCC1C(O)C2C3CCC(C(C)CC(=O)O)C3(C)CCC2C2(C)CCCCC12` (stereo not drawn) [compound 13], the EC50 on human GPBAR1 was 4300 nM; at FXR [5], 2300 nM and 2320 nM.
Regarding `CC[C@@H]1[C@@H](O)C2C3CC[C@H]([C@H](C)CCO)[C@@]3(C)CCC2[C@@]2(C)CC[C@@H](O)C[C@@H]12` (stereo partly drawn) [compound 9], the “Recruitment of SRC-1 co-activator to FXR” value in [2] is “completely unable to recruit SRC-1”.
Take `CC[C@@H]1[C@H](O)[C@@H]2[C@H](CC[C@]3(C)[C@@H]([C@H](C)CCCO)CC[C@@H]23)[C@@]2(C)CC[C@@H](O)C[C@@H]12` [compound 6, EUDCOH]: in [6], the Portal pressure result is recorded as “exerts portal pressure-lowering effects”. Also, the EC50 with GPBAR1 was 1030 nM. Further, the FXR transactivation entry on FXR [7] is “failing in transactivating FXR at any concentration tested”.
On to `CCC1C(O)C2C3CCC(C(C)CCO)C3(C)CCC2C2(C)CCC(O)CC12` (stereo not drawn) [compound 14], for which the EC50 at human GPBAR1 is 1000 nM and 1020 nM; at FXR [5], 5300 nM.

(Values after article PMC4933954, “Navigation in bile acid chemical space: discovery of novel FXR and GPBAR1 ligands” (Scientific Reports, 2016).)
